In patent US4443434A, “Antiulcer agent” (American Home Products Corporation, priority 1982, dated 1984):

Columns and labels:
gastric acid secretion [1] = conditions: on a molar basis; cited from earlier work
gastric blood flow = gastric blood flow by 86Rb distribution in rats; type: in vivo, rat; conditions: 1 mg/kg/hr i.v. infusion, 86RbCl at 30 min, mean ± S.E.M., 5 animals per group; saline 1.20 ± 0.05
Procedure: The effect of the octapeptide on gastric blood flow was established by the following procedure:
Rats weighing 280-350 gms were used. Rats were anesthatized with 50 mg/kg Nembutal and their left jugular veins cannulated. Somatostatin, 1 mg/kg/hr, was infused i.v. in one group of rats while a second group received a saline infusion. In a second experiment the octapeptide of the method of this invention, 1 mg/kg, or saline was injected s.c. Thirty minutes following the start of the experiment 20 μCi/rat of ^86 RbCl was injected i.v. The rats were killed 20 seconds later by injection of 0.5 ml Nembutal. The blood flow to the stomach was determined by counting ^86 Rb in the disected stomachs of the rats.

gastric acid secretion [2] = conditions: dose as high as 2 μm/kg, s.c.; cited from earlier work

In the case of CSCCC(NC(=O)C(Cc1c[nH]c2ccccc12)NC(=O)CNC(=O)C(Cc1ccc(O)cc1)NC(=O)C(C)NC(=O)C(CCC(=O)O)NC(=O)C(CCC(=O)O)NC(=O)C(CCC(=O)O)NC(=O)[C@H](CCC(=O)O)NC(=O)[C@H](CCC(=O)O)NC(=O)[C@H](CC(C)C)NC(=O)[C@H](Cc1c[nH]c2ccccc12)NC(=O)[C@@H]1CCCN1C(=O)CNC(=O)[C@@H](N)CCC(=O)O)C(=O)NC(CC(=O)O)C(=O)NC(Cc1ccccc1)C(N)=O (stereo in doubt) [gastrin], the “potency as stimulant of gastric acid secretion relative to histamine” value (gastric acid secretion [1]) is given as 1,500 times.
With C[C@H](N)C(=O)NCC(=O)N[C@H]1CSSC[C@@H](C(=O)O)NC(=O)[C@H](CO)NC(=O)[C@H]([C@@H](C)O)NC(=O)[C@H](Cc2ccccc2)NC(=O)[C@H]([C@@H](C)O)NC(=O)[C@H](CCCCN)NC(=O)[C@H](Cc2c[nH]c3ccccc23)NC(=O)[C@H](Cc2ccccc2)NC(=O)[C@H](Cc2ccccc2)NC(=O)[C@H](CC(N)=O)NC(=O)[C@H](CCCCN)NC1=O [somatostain, somatostatin] the “% total 86Rb in stomach” value (gastric blood flow) was 1.03 ± 0.05%.
For D-Lys^6 -SRIF, the “effect on gastric acid secretion” value (gastric acid secretion [2]) is listed as “no appreciable effect”.
